Data taken from patent US7598258B2, “Quinoline derivatives and quinazoline derivatives inhibiting autophosphorylation of macrophage colony stimulating factor receptor” (Kirin Beer Kabushiki Kaisha, priority 2002, dated 2009).

Target: T1, mouse c-fms (Mus musculus, UniProt P09581)
T1 construct: Macrophage-like cell line BAC-1.2F5 which expresses c-fms as a M-CSF receptor on cell membranes; endogenous in cells; host or cells: BAC-1.2F5 mouse macrophage-like cell line
T1 sequence (P09581 20-977): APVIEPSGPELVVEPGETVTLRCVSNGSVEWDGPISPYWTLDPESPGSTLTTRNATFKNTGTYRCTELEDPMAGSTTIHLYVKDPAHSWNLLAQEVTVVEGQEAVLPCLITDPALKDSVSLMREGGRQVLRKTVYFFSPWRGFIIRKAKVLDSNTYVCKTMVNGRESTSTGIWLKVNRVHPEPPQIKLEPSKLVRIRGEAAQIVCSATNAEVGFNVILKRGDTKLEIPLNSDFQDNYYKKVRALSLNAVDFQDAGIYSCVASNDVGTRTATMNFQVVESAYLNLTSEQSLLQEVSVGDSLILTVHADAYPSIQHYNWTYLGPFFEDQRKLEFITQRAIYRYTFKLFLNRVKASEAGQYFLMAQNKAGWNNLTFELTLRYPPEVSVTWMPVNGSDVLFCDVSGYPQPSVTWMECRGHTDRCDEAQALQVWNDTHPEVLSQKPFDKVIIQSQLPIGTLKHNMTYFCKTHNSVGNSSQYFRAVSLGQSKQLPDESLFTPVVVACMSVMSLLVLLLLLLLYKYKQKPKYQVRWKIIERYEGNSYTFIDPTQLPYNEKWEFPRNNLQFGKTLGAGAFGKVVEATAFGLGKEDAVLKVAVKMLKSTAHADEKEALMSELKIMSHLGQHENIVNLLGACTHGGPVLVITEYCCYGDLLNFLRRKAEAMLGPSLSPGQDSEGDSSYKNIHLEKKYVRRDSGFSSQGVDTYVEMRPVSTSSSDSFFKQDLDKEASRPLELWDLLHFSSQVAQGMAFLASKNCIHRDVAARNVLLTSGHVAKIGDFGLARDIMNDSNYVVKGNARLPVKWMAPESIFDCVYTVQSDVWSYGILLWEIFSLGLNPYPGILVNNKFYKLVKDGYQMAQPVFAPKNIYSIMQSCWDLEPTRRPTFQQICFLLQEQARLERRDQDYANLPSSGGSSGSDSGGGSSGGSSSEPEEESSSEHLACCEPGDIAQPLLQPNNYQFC
Assay: Inhibition of c-fms autophosphorylation in macrophage-like cell line BAC-1.2F5 by M-CSF stimulation (ELISA)
Assay type: cell-based
Conditions: BAC-1.2F5 cells, human recombinant M-CSF 50 ng/ml, read-out: c-fms autophosphorylation 50% inhibitory concentration (IC50)
Experimental: Macrophage-like cell line BAC-1.2F5 which expresses c-fms as a M-CSF receptor on cell membranes (CLAUDIA M. et al., J. Cell. Physiol., 130, 420-427 (1987), “Isolation and Characterization of a Cloned Growth Factor Dependent Macrophage Cell Line, BAC1.2F5”) was cultured at 37° C. in a DMEM medium containing L-cell supernatant and 10% fetal calf serum (GIBCO BRL) in a 5% CO2 incubator until about 50 to 70% confluent. The harvested cells were inoculated into wells, each containing the same medium, in a collagen type I coat 96-well flat-bottom plate in an amount of 5.0×10^4 per well, and cultured at 37° C. for 12 hr. Thereafter, the medium was replaced with a DMEM medium containing a 0.1% fetal calf serum and cultured for 12 hr. Thereafter, a test compound dissolved in dimethyl sulfoxide was added to each well, and cells were incubated at 37° C. for one hr. Human recombinant M-CSF was added to a final concentration of 50 ng/ml, and cells were stimulated at 37° C. for 6 min. After the medium was removed, 50 μl of a solubilization buffer (20 mM HEPES (pH 7.4), 150 mM NaCl, 0.2% Triton X-100, 10% glycerol, 5 mM sodium orthovanadylate, 5 mM disodium ethylenediaminetetraacetate, and 2 mM Na4P2O7) was added thereto. The mixture was shaken at 4° C. for 2 hr to prepare a cell extract as an assay sample which was then used for an ELISA assay.
The plate for the ELISA assay was prepared as follows. Phosphate buffered saline (50 μl, pH 7.4) containing 5 μg/ml of anti-phospho-tyrosine antibody (PY20; Transduction Laboratories) was added to a microplate for ELISA (Maxisorp; purchased from NUNC), followed by standing at 4° C. overnight to be immobilized on the wells. Thereafter, each well was washed twice with 200 μl of a Ca- and Mg-free phosphate buffer containing 0.1% Tween-20 (hereinafter referred to as “PBS-T”), and 200 μl of a blocking solution (Dainippon Pharmaceutical Co. Ltd.: BlockAce) was added to each well, and the wells were then allowed to stand at room temperature for 2 hr for blocking.
Separately, phosphate buffered saline (50 μl, pH 7.4) containing 5 μg/ml of anti-phospho-tyrosine antibody (PY20; Transduction Laboratories) was added to a microplate for ELISA (Maxisorp; purchased from NUNC), followed by standing at 4° C. overnight to form a solid phase on the wells. After washing of the plate, 300 μl of a blocking solution was added, followed by standing at room temperature for 2 hr to perform blocking. After washing, the whole quantity of the cell extract was transferred to the wells, and the plate was then allowed to stand at 4° C. overnight. After washing, anti-c-fms antiserum (Upstate Biotechnology, Inc.) was allowed to react at room temperature for one hr, and, after washing, a peroxidase-labeled anti-rabbit Ig antibody (Amersham) was allowed to react at room temperature for one hr. After washing, a chromophoric substrate for peroxidase (Sumitomo Bakelite Co., Ltd.) was added thereto to initiate a reaction. After a suitable level of color development, a reaction termination solution was added to stop the reaction, and the absorbance at 450 nm was measured with a microplate reader. The c-fms phosphorylation activity for each well was determined by presuming the absorbance without the addition of the test compound and with the addition of M-CSF to be 100% c-fms phosphorylation activity and the absorbance without the addition of the test compound and M-CSF to be 0% c-fms phosphorylation activity. The concentration of the test compound was varied on several levels, the c-fms phosphorylation inhibitory rate was determined for each case, and the concentration of the test compound necessary for inhibiting 50% of c-fms phosphorylation (IC50) was calculated.

IC50 [nM] | SMILES
53.5 | COc1cc2nccc(Oc3ccc(NC(=O)NC(C)c4nc(C)c(C)s4)cc3)c2cc1OC (centres unmarked) [Example 94, N-{4-[(6,7-Dimethoxy-4-quinolyl)oxy]phenyl}-N′-[1-(4,5-dimethyl-1,3-thiazol-2-yl)ethyl]urea]
38.3 | COc1cc2nccc(Oc3ccc(NC(=O)NC(C)c4nc(C)c(C)s4)c(F)c3)c2cc1OC (centres unmarked) [Example 95, N-{4-[(6,7-Dimethoxy-4-quinolyl)oxy]-2-fluorophenyl}-N′-[1-(4,5-dimethyl-1,3-thiazol-2-yl)ethyl]urea]
147 | COc1cc2nccc(Oc3ccc(NC(=O)NC(C)c4nc(C)c(C)s4)c(C)c3)c2cc1OC (centres unmarked) [Example 96, N-{4-[(6,7-Dimethoxy-4-quinolyl)oxy]-2-methylphenyl}-N′-[1-(4,5-dimethyl-1,3-thiazol-2-yl)ethyl]urea]
120 | COc1cc2nccc(Oc3ccc(NC(=O)NC(C)c4nc(C)c(C)s4)c(C(F)(F)F)c3)c2cc1OC (centres unmarked) [Example 97, N-[4-[(6,7-Dimethoxy-4-quinolyl)oxy]-2-(trifluoromethyl)phenyl]-N′-[1-(4,5-dimethyl-1,3-thiazol-2-yl)ethyl]urea]
426 | COc1cc2nccc(Oc3cc(C)c(NC(=O)NC(C)c4nc(C)c(C)s4)cc3C)c2cc1OC (centres unmarked) [Example 98, N-{4-[(6,7-Dimethoxy-4-quinolyl)oxy]-2,5-dimethylphenyl}-N′-[1-(4,5-dimethyl-1,3-thiazol-2-yl)ethyl]urea]

Continued, molecule first:

SMILES | IC50 [nM]
CC[C@H](NC(=O)Nc1ccc(Oc2ccnc3cc(OC)c(OC)cc23)cc1)c1ccccc1 [Example 37, N-{4-[(6,7-Dimethoxy-4-quinolyl)oxy]phenyl}-N′-[(1S)-1-phenylpropyl]urea] | 5
CC[C@@H](NC(=O)Nc1ccc(Oc2ccnc3cc(OC)c(OC)cc23)cc1)c1ccccc1 [Example 38, N-{4-[(6,7-Dimethoxy-4-quinolyl)oxy]phenyl}-N′-[(1R)-1-phenylpropyl]urea] | 5.7
COc1cc2nccc(Oc3ccc(NC(=O)N[C@H]4CCc5ccccc54)cc3)c2cc1OC [Example 43, N-[(1S)-2,3-Dihydro-1H-1-indenyl]-N′-{4-[(6,7-dimethoxy-4-quinolyl)oxy]phenyl}urea] | 3.1
COc1cc2nccc(Oc3ccc(NC(=O)N[C@@H]4CCc5ccccc54)cc3)c2cc1OC [Example 44, N-[(1R)-2,3-Dihydro-1H-1-indenyl]-N′-{4-[(6,7-dimethoxy-4-quinolyl)oxy]phenyl}urea] | 1.8
COc1cc(Oc2ccnc3cc(OC)c(OC)cc23)ccc1NC(=O)N[C@@H](C)c1nccs1 [Example 75, N-{4-[(6,7-Dimethoxy-4-quinolyl)oxy]-2-methoxyphenyl}-N′-[(1S)-1-(1,3-thiazol-2-yl)ethyl]urea] | 2.1
COc1cc(Oc2ccnc3cc(OC)c(OC)cc23)ccc1NC(=O)N[C@H](C)c1nccs1 [Example 76, N-{4-[(6,7-Dimethoxy-4-quinolyl)oxy]-2-methoxyphenyl}-N′-[(1R)-1-(1,3-thiazol-2-yl)ethyl]urea] | 7.1
